# Source: the supplement of paper PMC10307832
# Columns and labels:
# Experiment in all cases: relative viability (nuclei count vs DMSO), 5 days (fraction); higher = more cells survive
# [1] = compound: C#Cc1cccc(Nc2ncnc3cc(OC)c(OCCCCCCC(=O)NO)cc23)c1 [CUDC-101] + CS(=O)(=O)N1CCN(Cc2cc3nc(-c4cccc5[nH]ncc45)nc(N4CCOCC4)c3s2)CC1 [Pictilisib] (partner 1 µM)
# Method in brief: (§1)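 Five library-drug doses in √10 steps were combined with a fixed anchor-drug dose, or a single drug was given alone, by pin tool to lung cancer cell lines in 1536-well plates the day after seeding. Nuclei were stained and counted after 5 days. Relative viability is the nuclei count in treated wells over that in vehicle wells, taken as the median of duplicate plates.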
# [2] = compound: C#Cc1cccc(Nc2ncnc3cc(OC)c(OCCCCCCC(=O)NO)cc23)c1 [CUDC-101] + N=C(N)NC(=N)NCCc1ccccc1 [Phenformin] (partner 250 µM)
# Method in brief: as §1
# [3] = compound: COc1cc2/c(=N/c3ccc(Br)cc3F)nc[nH]c2cc1OCC1CCN(C)CC1 [Vandetanib] + CC(C)C[C@H](NC(=O)[C@H](Cc1ccccc1)NC(=O)c1cnccn1)B(O)O [Bortezomib] (partner 0.002 µM)
# Method in brief: as §1
# [4] = compound: COc1cc2/c(=N/c3ccc(Br)cc3F)nc[nH]c2cc1OCC1CCN(C)CC1 [Vandetanib] + Cc1nc(NC(=O)N2CCC[C@H]2C(N)=O)sc1-c1ccnc(C(C)(C)C(F)(F)F)c1 [Alpelisib] (partner 2 µM)
# Method in brief: as §1
cell line,measurement,setting,value
UMC-11,relative viability,[1]; first compound 0.01 µM,0.857
same,relative viability,[1]; first compound 0.03162 µM,0.775
same,relative viability,[1]; first compound 0.1 µM,0.679
same,relative viability,[1]; first compound 0.3162 µM,0.575
same,relative viability,[1]; first compound 1 µM,0.108
same,relative viability,[2]; first compound 0.01 µM,0.337
same,relative viability,[2]; first compound 0.03162 µM,0.285
same,relative viability,[2]; first compound 0.1 µM,0.262
same,relative viability,[2]; first compound 0.3162 µM,0.167
same,relative viability,[2]; first compound 1 µM,0.102
same,relative viability,[3]; first compound 0.02 µM,0.743
same,relative viability,[3]; first compound 0.06325 µM,0.708
same,relative viability,[3]; first compound 0.2 µM,0.61
same,relative viability,[3]; first compound 0.6325 µM,0.725
same,relative viability,[3]; first compound 2 µM,0.746
same,relative viability,[4]; first compound 0.02 µM,0.897
same,relative viability,[4]; first compound 0.06325 µM,0.975
same,relative viability,[4]; first compound 0.2 µM,0.905
same,relative viability,[4]; first compound 0.6325 µM,0.908
same,relative viability,[4]; first compound 2 µM,0.922
